# Test results as given in patent publication US9782429B2, “Formulation having mobilizing activity” (GENTIUM SPA, priority 2000, dated 2017).
# System: white blood cells (WBC)
# Experiment: Effect of G-CSF and/or defibrotide on the amount of white blood cells in murine blood
# Type: in vivo, BALB/c mice
# Details: mice, IP injection, 5 days treatment; FIG. 1
# Description: This experiment was carried out to evaluate the effect of the administration of G-CSF and/or defibrotide (DEF) on the amount of white blood cells (WBC) present in murine blood. BALB/c mice from 6 to 8 weeks old and having a body weight of from 20 to 25 g were subjected to intraperitoneal (IP) injections of G-CSF (5 μg/mouse/day), DEF (1 mg/mouse/day), or a combination of G-CSF (5 μg/mouse/day) and increasing doses of DEF (1, 10, 15 mg/mouse/day). A saline solution, buffered to 0.1%, of […] (PBS/MSA) was administered by IP injection to the control mice which had not received G-CSF and/or DEF. The mice were treated for 5 days and sacrificed after 3 or 5 days of treatment, or 3 days after therapy had ceased. The following symbols were used to represent each group of mice: G-CSF (▪) (n=24), DEF 1 (◯) (n=3), G-CSF+DEF 1 (♦) (n=13), G-CSF+DEF 10 (▴) (n=6), G-CSF+DEF 15 (●) (n=23). The mean white blood cell count in PBS/MSA in the control mice was 2.87±0.2×10^6/ml of blood; the data ate expressed as mean± standard error of the mean (SEM).
substance,measurement,value
defibrotide,amount of white blood cells in circulation in murine blood,does not have a positive influence
